{
  "source": "patent US7655252B2",
  "about": "(priority 1999, dated 2010)",
  "test_system": "Influenza virus A/AA/6/60",
  "format": "cell-based",
  "data": [
    {"substance": "t-octylphenoxypolyethoxyethanol [TRITON X-100]", "values": [
      {"measurement": "inhibition of the infectivity of virus", "result": "only partially inhibited"},
      {"measurement": "reduction of influenza A infection of MDCK cells", "setting": "30 min", "result": "completely ineffective"}
    ]}
  ]
}
